Experimental data taken from patent US10143740B2, “Inactivating pathogens with oxidizing agents for vaccine production” (priority 2005, dated 2018).
Read-outs that look alike come from different tables or passages of the source.

Legend:
[1] = system: lymphocytic choriomeningitis virus (LCMV)
[2] = mouse, in vivo; cited from earlier work
[3] = rats, inhalation; cited from earlier work
[4] = in vitro and in vivo; cited from earlier work

Structure (SMILES): OO [H2O2, hydrogen peroxide]
- viral titer after treatment (monkeypox virus (MPV)): reduced to below the limit of detection
- viral titer after treatment (West Nile virus (WNV)): reduced to below the limit of detection
- H2O2 concentration after which no infectious virus could be detected (vaccinia virus): ≤ 0.03%
- viral titer after treatment (vaccinia virus): reduced to below the limit of detection
- viral titer after treatment (yellow fever virus (YFV)): reduced to below the limit of detection
- H2O2 concentration at which infectivity is eliminated [1]: < 0.1%
- viral titer after treatment [1]: reduced to below the limit of detection

Structure (SMILES): O=C1CCO1 [betapropiolactone]
- carcinogenicity [2]: produce squamous cell carcinomas, lymphomas and hepatomas

Structure (SMILES): C=O [formaldehyde]
- carcinogenicity [3]: induces squamous-cell carcinoma of the nasal cavity
- genotoxicity [4]: genotoxic in vitro and in vivo
